IC50 data for 20 compounds are collected here from US11524944B2, “2-phenylpyrimidine-4-carboxamides as AHR inhibitors” (Bayer Aktiengesellschaft, priority 2017, dated 2022).

Structures are written as SMILES.

Test [1] addresses T1, Human AhR (Homo sapiens, UniProt P35869).
T1 construct: host or cells: U87 glioblastoma cells, stably transfected with a DRE firefly luciferase reporter and a constitutive renilla reporter
T1 sequence (P35869 11-848): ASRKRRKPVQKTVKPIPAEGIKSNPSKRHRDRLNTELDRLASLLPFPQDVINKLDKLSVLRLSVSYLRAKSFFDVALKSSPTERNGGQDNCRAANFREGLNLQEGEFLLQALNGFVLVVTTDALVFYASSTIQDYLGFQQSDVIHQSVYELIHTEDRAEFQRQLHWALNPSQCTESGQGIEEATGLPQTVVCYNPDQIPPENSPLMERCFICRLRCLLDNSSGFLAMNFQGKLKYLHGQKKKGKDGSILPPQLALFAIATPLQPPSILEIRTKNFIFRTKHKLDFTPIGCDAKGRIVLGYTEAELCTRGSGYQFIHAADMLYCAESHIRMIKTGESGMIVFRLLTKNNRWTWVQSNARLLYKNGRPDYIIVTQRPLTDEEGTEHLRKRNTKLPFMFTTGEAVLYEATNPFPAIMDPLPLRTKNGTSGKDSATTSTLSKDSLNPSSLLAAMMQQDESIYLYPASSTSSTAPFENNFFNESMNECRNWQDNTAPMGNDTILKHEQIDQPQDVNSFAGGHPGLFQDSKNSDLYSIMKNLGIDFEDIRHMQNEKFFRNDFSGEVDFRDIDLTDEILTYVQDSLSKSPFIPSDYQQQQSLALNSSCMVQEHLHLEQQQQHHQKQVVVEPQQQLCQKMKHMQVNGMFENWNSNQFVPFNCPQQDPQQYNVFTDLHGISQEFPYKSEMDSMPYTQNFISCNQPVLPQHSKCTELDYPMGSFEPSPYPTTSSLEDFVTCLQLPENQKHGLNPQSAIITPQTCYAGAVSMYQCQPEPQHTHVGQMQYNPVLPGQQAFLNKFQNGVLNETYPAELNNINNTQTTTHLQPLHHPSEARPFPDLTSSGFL
The test can be described thus: Transactivation assay in human cell line (in vitro assay 1): antagonism. Format: cell-based. The conditions noted are these: U87 glioblastoma cells, AHR inducible firefly luciferase reporter (DRE), 150 μM kynurenic acid, 20 hours. How it is done: (§1) Examples were tested in selected biological assays one or more times. When tested more than once, data are reported as either average values or as median values, wherein • the average value, also referred to as the arithmetic mean value, represents the sum of the values obtained divided by the number of times tested, and • the median value represents the middle number of the group of values when ranked in ascending or descending order. If the number of values in the data set is odd, the median is the middle value. If the number of values in the data set is even, the median is the arithmetic mean of the two middle values.
Transactivation Assay in Human Cell Line (In Vitro Assay 1)
Transactivation assay was carried out in U87 glioblastoma cells (ATCC) endogenously expressing AHR. In addition the cells were stably transfected with an AHR inducible firefly luciferase reporter gene construct that carried AHR-binding sites (DRE) in its promoter and a renilla reporter gene construct with constitutively active promoter. Kynurenic acid is an endogenous AHR activating ligand and was used to prestimulate test cells prior to testing the antagonistic properties of compounds.
In Vitro Assay 1: Antagonism in Human Cell Line
Firefly luciferase and Renilla activity was determined by the DualGlo Luciferase Assay System (Promega, #2920). Renilla activity was used to assess toxic effects of compounds.

Test [2] concerns the target T2, Mouse AhR (Mus musculus, UniProt P30561).
T2 sequence (P30561 1-848 P471L/N533S/M589L): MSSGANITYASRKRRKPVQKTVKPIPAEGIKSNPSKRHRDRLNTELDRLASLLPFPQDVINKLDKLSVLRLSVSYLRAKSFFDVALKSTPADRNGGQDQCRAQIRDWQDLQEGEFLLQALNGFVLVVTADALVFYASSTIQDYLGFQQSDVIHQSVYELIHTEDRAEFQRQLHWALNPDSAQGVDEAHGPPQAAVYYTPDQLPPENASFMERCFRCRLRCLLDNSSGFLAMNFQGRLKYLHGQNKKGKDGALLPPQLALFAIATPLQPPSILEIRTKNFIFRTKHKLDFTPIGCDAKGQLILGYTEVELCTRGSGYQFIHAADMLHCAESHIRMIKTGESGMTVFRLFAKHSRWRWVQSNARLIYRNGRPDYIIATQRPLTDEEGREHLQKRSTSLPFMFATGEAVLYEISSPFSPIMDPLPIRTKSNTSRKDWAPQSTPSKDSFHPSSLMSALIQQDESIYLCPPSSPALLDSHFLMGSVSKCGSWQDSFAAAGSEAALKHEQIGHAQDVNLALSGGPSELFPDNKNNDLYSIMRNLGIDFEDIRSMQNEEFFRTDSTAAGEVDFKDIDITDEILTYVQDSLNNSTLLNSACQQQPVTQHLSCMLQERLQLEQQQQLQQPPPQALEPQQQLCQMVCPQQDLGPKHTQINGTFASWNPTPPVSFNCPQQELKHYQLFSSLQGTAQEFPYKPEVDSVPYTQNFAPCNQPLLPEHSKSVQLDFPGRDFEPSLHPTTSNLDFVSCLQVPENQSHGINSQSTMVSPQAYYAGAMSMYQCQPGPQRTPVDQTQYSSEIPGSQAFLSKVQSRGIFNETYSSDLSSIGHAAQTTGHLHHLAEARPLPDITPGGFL
In words: Transactivation assay in mouse cell line (in vitro assay 2): antagonism. The test is classed as cell-based. The conditions noted are these: Hepa 1c1c7 cells, AHR inducible firefly luciferase reporter (DRE), 200 μM kynurenic acid, 20 hours. The procedure: as §1
Transactivation Assay in Mouse Cell Line (In Vitro Assay 2)
Transactivation assay was carried out in Hepa 1c1c7 cells (ATCC #CRL-2026) endogenously expressing AHR. In addition the cells were stably transfected with an AHR inducible firefly luciferase reporter gene construct that carried AHR-binding sites (DRE) in its promoter. Kynurenic acid is an endogenous AHR activating ligand and was used to prestimulate test cells prior to testing the antagonistic properties of compounds.
In Vitro Assay 2: Antagonism in Mouse Cell Line
Firefly luciferase activity was determined by the SteadyGlo Luciferase Assay System (Promega, #E2550).

In the case of `C[C@H](CO)NC(=O)c1cc(-c2ccc(Cl)cc2)nc(-c2cccc(F)c2)n1` [Example 2, 6-(4-Chlorophenyl)-2-(3-fluorophenyl)-N-[(2R)-1-hydroxypropan-2-yl]pyrimidine-4-carboxamide], the IC50 in test [1] came out at 5.88 nM; in test [2] it was 13.3 nM. Taken in the same sequence, the figures for `C[C@@H](CO)NC(=O)c1cc(-c2ccc(Cl)cc2)nc(-c2ccc(Cl)cc2)n1` [Example 3, 2,6-Bis(4-chlorophenyl)-N-[(2S)-1-hydroxypropan-2-yl]pyrimidine-4-carboxamide] were 640 nM and 532 nM.

For `C[C@@H](CO)NC(=O)c1cc(-c2ccc(Cl)cc2)nc(-c2cccc(F)c2)n1` [Example 4, 6-(4-Chlorophenyl)-2-(3-fluorophenyl)-N-[(2S)-1-hydroxypropan-2-yl]pyrimidine-4-carboxamide], the IC50 in test [1] was 1.69 nM; in test [2] it was 3.38 nM. Taken in the same sequence, the figures for `C[C@@H](CO)NC(=O)c1cc(-c2ccc(OC(F)(F)F)cc2)nc(-c2cccc(F)c2)n1` [Example 5, 2-(3-Fluorophenyl)-N-[(2S)-1-hydroxypropan-2-yl]-6-[4-(trifluoromethoxy)phenyl]pyrimidine-4-carboxamide] were 1.27 nM and 1.28 nM. Taken in the same sequence, the figures for `C[C@H](CO)NC(=O)c1cc(-c2ccc(OC(F)(F)F)cc2)nc(-c2cccc(F)c2)n1` [Example 6, 2-(3-Fluorophenyl)-N-[(2R)-1-hydroxypropan-2-yl]-6-[4-(trifluoromethoxy)phenyl]pyrimidine-4-carboxamide] were 12.2 nM and 17.8 nM. Taken in the same sequence, the figures for `CC(C)(O)CNC(=O)c1cc(-c2ccc(OC(F)(F)F)cc2)nc(-c2cccc(F)c2)n1` [Example 7, 2-(3-Fluorophenyl)-N-(2-hydroxy-2-methylpropyl)-6-[4-(trifluoromethoxy)phenyl]pyrimidine-4-carboxamide] were over 20000 nM and over 20000 nM. Regarding `CC(C)(O)CNC(=O)c1cc(-c2ccc(C(F)(F)F)cc2)nc(-c2cccc(F)c2)n1` [Example 8, 2-(3-Fluorophenyl)-N-(2-hydroxy-2-methylpropyl)-6-[4-(trifluoromethyl)phenyl]pyrimidine-4-carboxamide], the IC50 in test [1] and in test [2] was over 20000 nM each time. The compound `Cc1cccc(-c2nc(C(=O)NCC(C)(C)O)cc(-c3ccc(OC(F)(F)F)cc3)n2)c1` [Example 16, N-(2-hydroxy-2-methylpropyl)-2-(3-methylphenyl)-6-[4-(trifluoromethoxy)phenyl]pyrimidine-4-carboxamide] gave an IC50 in test [2] of 12.9 nM. On the same count and under the same terms, for `Cc1cc(-c2nc(C(=O)NCC(C)(C)O)cc(-c3ccc(OC(F)(F)F)cc3)n2)ccc1F` [Example 17, 2-(4-fluoro-3-methylphenyl)-N-(2-hydroxy-2-methylpropyl)-6-[4-(trifluoromethoxy)phenyl]pyrimidine-4-carboxamide] the value was 637 nM; for `CC(C)(O)CNC(=O)c1cc(-c2ccc(OC(F)(F)F)cc2)nc(-c2ccc(Cl)c(Cl)c2)n1` [Example 22, 2-(3,4-dichlorophenyl)-N-(2-hydroxy-2-methylpropyl)-6-[4-(trifluoromethoxy)phenyl]pyrimidine-4-carboxamide], 278 nM.

In the case of `CC(C)(O)CNC(=O)c1cc(-c2ccc(OC(F)(F)F)cc2)nc(-c2cc(F)cc(F)c2)n1` [Example 24, 2-(3,5-difluorophenyl)-N-(2-hydroxy-2-methylpropyl)-6-[4-(trifluoromethoxy)phenyl]pyrimidine-4-carboxamide], the midpoint of inhibition in test [2], the IC50, lay at 28.3 nM.

`C[C@@H](CO)NC(=O)c1cc(-c2ccc(OC(F)(F)F)cc2)nc(-c2cccc(Cl)c2)n1` [Example 37, 2-(3-chlorophenyl)-N-[(2S)-1-hydroxypropan-2-yl]-6-[4-(trifluoromethoxy)phenyl]pyrimidine-4-carboxamide]: the IC50 in test [2] is 8.49 nM. The same measure, in the same setting: under `C[C@@H](CO)NC(=O)c1cc(-c2ccc(OC(F)(F)F)cc2)nc(-c2cc(F)cc(F)c2)n1` [Example 39, 2-(3,5-difluorophenyl)-N-[(2S)-1-hydroxypropan-2-yl]-6-[4-(trifluoromethoxy)phenyl]pyrimidine-4-carboxamide] stands 12.3 nM. Still for that read-out and setting: under `Cc1cccc(-c2nc(C(=O)NCC(C)(C)O)cc(-c3ccc(Cl)cc3)n2)c1` [Example 48, 6-(4-chlorophenyl)-N-(2-hydroxy-2-methylpropyl)-2-(3-methylphenyl)pyrimidine-4-carboxamide] stands 26 nM. Compound `Cc1cc(-c2nc(C(=O)NCC(C)(C)O)cc(-c3ccc(Cl)cc3)n2)ccc1F` [Example 49, 6-(4-chlorophenyl)-2-(4-fluoro-3-methylphenyl)-N-(2-hydroxy-2-methylpropyl)pyrimidine-4-carboxamide] showed an IC50 in test [2] of 406 nM. Still for that read-out and setting: for `CC(C)(O)CNC(=O)c1cc(-c2ccc(Cl)cc2)nc(-c2ccc(F)c(Cl)c2)n1` [Example 50, 2-(3-chloro-4-fluorophenyl)-6-(4-chlorophenyl)-N-(2-hydroxy-2-methylpropyl)pyrimidine-4-carboxamide] the value was 53.8 nM; for `Cc1cc(F)cc(-c2nc(C(=O)NCC(C)(C)O)cc(-c3ccc(Cl)cc3)n2)c1` [Example 60, 6-(4-chlorophenyl)-2-(3-fluoro-5-methylphenyl)-N-(2-hydroxy-2-methylpropyl)pyrimidine-4-carboxamide], 908 nM. With `C[C@@H](CO)NC(=O)c1cc(-c2ccc(Cl)cc2)nc(-c2cccc(Cl)c2)n1` [Example 71, 2-(3-chlorophenyl)-6-(4-chlorophenyl)-N-[(2S)-1-hydroxypropan-2-yl]pyrimidine-4-carboxamide], in test [2], the IC50 worked out at 13.6 nM. In the case of `C[C@@H](CO)NC(=O)c1cc(-c2ccc(Cl)cc2)nc(-c2cc(F)cc(F)c2)n1` [Example 74, 6-(4-chlorophenyl)-2-(3,5-difluorophenyl)-N-[(2S)-1-hydroxypropan-2-yl]pyrimidine-4-carboxamide], the IC50 in test [2] stood at 17 nM.

Regarding `O=C(NC(CO)C1CCC1)c1cc(-c2ccc(OC(F)(F)F)cc2)nc(-c2cccc(F)c2)n1` (stereo not drawn) [Example 85, N-(1-cyclobutyl-2-hydroxyethyl)-2-(3-fluorophenyl)-6-[4-(trifluoromethoxy)phenyl]pyrimidine-4-carboxamide], the IC50 in test [2] was determined as 12.8 nM.
